Where two headings read alike, the source gives them in different places.
What was measured:
[1] = Plasma stability test of payloads (LC-MS/MS, half-life); type: in vitro ADME; settings: human plasma, 37° C., time points 0-24 h, read-out: Human plasma stability T1/2 (converted)
Experimental: Stock solutions were prepared at 10 mM in DMSO for the test compound. Aliquots of the stock solutions were diluted to 0.02 mM in 0.05 M sodium phosphate buffer containing 0.5% BSA as the dosing solution. Then 10 μL of the dosing solutions were dosed into 90 μL of pre-warmed plasma (37° C.) in singlet (n=1) in 96-well assay plates to reach a final test concentration of 2 μM. The plates were kept in a 37° C. water bath for the duration of the experiment. At each time point (0, 0.25, 1, 8, 24 h), 400 μL of acetonitrile (containing internal standard) was added into corresponding wells of the assay plates. After the final time point was quenched, the assay plates were shaken on a vibrator (IKA, MTS 2/4) for 10 min (600 rpm/min) and then centrifuged at 5594 g for 15 min (Thermo Multifuge×3R). Aliquots of the supernatant were taken and analyzed by LC-MS/MS. The peak area response ratio to internal standard (PARR) of the compounds at 0.25, 1, 8, and 24 h was compared to the PARR at time zero to determine the percent of test compound remaining at each time point. Half-lives (ti/2) were calculated using Excel software, fitting to a single-phase exponential decay equation.

SK-BR-3 cells = test: SK-BR-3 anti-proliferation assay for payloads (CellTiter-Glo); type: cell-based; settings: Homo sapiens, free payload, 120-144 h, read-out: SKBR3
Experimental: The cell line used in the anti-proliferation assays was SK-BR-3, a human breast, adenocarcinoma (pleural effusion) cell line. The cells were grown in McCoy's 5a Medium+10% FBS. To run the assay for payloads, the cells (40 μL, 700 cells) were added to each well in a 384-well plate and incubated for 24 hours at 37° C. with 5% CO2. Then the cells were treated with test compounds at various concentrations using HPD300, and then normalize the DMSO to 0.5%. The control wells contain cells and the medium but lack the test compounds. The plates were incubated for 120 h at 37° C. with 5% CO2. To run the assay for ADCs and some key payloads, the cells (80 μL, 1000 cells) were added to each well in a 96-well plate and incubated for twenty-four hours at 37° C. with 5% CO2. Next, the ADCs or payloads were diluted with Opti-Mem with 0.1% BSA. The cells were treated with test compounds or ADCs (20 μL) at various concentrations in appropriate cell culture medium (total volume, 0.1 mL). The final concentration of DMSO was adjusted to 0.2% and the Opti-Mem with 0.1% BSA was adjusted to 5%. The control wells contained cells and the medium but lacked the test compounds. The plates were incubated for 144 h at 37° C. with 5% CO2. CTG reagent was then added to the wells (25 μL/384-well or 100 μL/96-well). After the plates were shaken for 10 min and then incubated for 10 min at room temperature, paste the clear bottom with white back seal and record luminescence with Envision. The inhibition % was calculated according to the following equation: inhibition %=[1-(assay-blank)/(control-blank)]×100.

HCT15 cells = test: HCT15 anti-proliferation / cell killing assay (CellTiter-Glo), with or without verapamil; type: cell-based, human; settings: Homo sapiens
Experimental: The cell line used in the anti-proliferation assays was HCT15, a human colon, colorectal carcinoma cell line. The HCT15 cells were grown in RPMI medium 1640+10% FBS. To run the assay, the cells (40 μL, 400 cells) were added to each well in a 384-well plate and incubated for twenty-four hours at 37° C. with 5% CO2. One hour before adding compounds, freshly dilute Verapamil to 0.2 mg/ml in ddH2O. Add 1 μL/well diluted Verapamil to Verapamil treatment wells and 1 μL/well ddH2O to the non-Verapamil treatment wells. Return plates to the incubator at 37° C. with 5% CO2. Then the cells were treated with test compounds at various concentrations using HPD300, and then normalize the DMSO to 0.5%. The control wells contained cells and the medium but lack the test compounds. The plates were incubated for 120 hours at 37° C. with 5% CO2. CTG reagent was then added to the wells (25 μL). After the plates were shaken for 10 min and then incubated for 10 min at room temperature, paste the clear bottom with white back seal and record luminescence with Envision. The inhibition % was calculated according to the following equation: inhibition %=[1−(assay-blank)/(control-blank)]×100.

[2] = HCT15 cells, no verapamil, 120 h (5 days), read-out: HCT-15
[3] = HCT-15, HCT15 cells pre-treated with verapamil, 120 h, read-out: HCT-15 with verapamil

Row | SMILES | half-life at 2 μM [1] | IC50 (SK-BR-3 cells) | IC50 (HCT15 cells; [2]) | IC50 (HCT15 cells; [3])
1 | CCCCCCN(C(=O)[C@@H](NC(=O)[C@H]1CCCCN1C)[C@@H](C)CC)[C@H](C[C@@H](OC(=O)NCCO)c1nc(C(=O)N[C@@H](Cc2ccc(N)c(F)c2)CC(C)(C)C(=O)O)cs1)C(C)C (mixture of isomers) [PA24, (S)-5-(4-amino-3-fluorophenyl)-4-(2-((3RS,6SR,8SR)-3-((RS)-sec-butyl)-5-hexyl-13-hydroxy-6-isopropyl-1-((R)-1-methylpiperidin-2-yl)-1,4,10-trioxo-9-oxa-2,5,11-triazatridecan-8-yl)thiazole-4-carboxamido)-2,2-dimethylpentanoic acid] | 43.4 h | 0.135 nM | 0.944 nM | 0.255 nM
2 | CCCCCCN(C(=O)[C@@H](NC(=O)[C@H]1CCCCN1C)[C@@H](C)CC)[C@H](C[C@@H](OC(C)=O)c1nc(C(=O)N[C@@H](Cc2ccc(NCC(=O)O)cc2)CC(C)(C)C(=O)O)cs1)C(C)C (racemic) [PA16, Rac-(R)-4-(2-((1S,3S)-1-acetoxy-3-((2R,3R)—N-hexyl-3-methyl-2-((S)-1-methylpiperidine-2-carboxamido)pentanamido)-4-methylpentyl)thiazole-4-carboxamido)-acid] | 327 h | 0.019 nM | 0.062 nM | 0.033 nM
3 | CCCCCCN(C(=O)[C@@H](NC(=O)[C@@]1(C)CCCN1)[C@@H](C)CC)[C@H](C[C@@H](OC(C)=O)c1nc(C(=O)N[C@@H](Cc2ccc(N)c(F)c2)CC(C)(C)C(=O)O)cs1)C(C)C [Compound P15, reference compound] | 15.1 h | 0.068 nM | 1.66 nM | 0.19 nM
4 | CCCCCCN(C(=O)[C@@H](NC(=O)[C@H]1CCCCN1C)[C@@H](C)CC)[C@H](C[C@@H](OCC)c1nc(C(=O)N[C@@H](Cc2ccc(NCCO)cc2)CC(C)(C)C(=O)O)cs1)C(C)C (racemic) [PA15, Rac-(R)-4-(2-((1S,3S)-1-ethoxy-3-((2R,3R)—N-hexyl-3-methyl-2-((S)-1-methylpiperidine-2-carboxamido)pentanamido)-4-methylpentyl)thiazole-4-carboxamido)-acid] | 103 h | 0.314 nM | 1.7 nM | 0.393 nM
